The target in the first test is EBI2 (Homo sapiens, UniProt P32249). Put plainly: Cell-based luminescent assay (EBI2 modulation).
Chain of EBI2 (P32249 whole entry): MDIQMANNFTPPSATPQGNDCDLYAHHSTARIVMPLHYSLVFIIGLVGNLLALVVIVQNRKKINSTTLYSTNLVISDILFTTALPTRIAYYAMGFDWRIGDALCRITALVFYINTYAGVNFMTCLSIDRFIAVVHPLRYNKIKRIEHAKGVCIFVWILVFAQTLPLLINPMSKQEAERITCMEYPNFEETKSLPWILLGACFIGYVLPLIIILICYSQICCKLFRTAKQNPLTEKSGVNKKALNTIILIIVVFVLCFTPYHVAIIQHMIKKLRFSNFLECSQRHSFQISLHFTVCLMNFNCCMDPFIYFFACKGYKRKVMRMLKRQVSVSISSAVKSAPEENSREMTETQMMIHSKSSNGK
Details: not given
In short, it runs like this:
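Cells plated overnight at 37° C, then exposed to compound at 4-5 uM final with 80 nM 7a,25-OHC agonist for 60 min at 37° C. Luminescence read after 60 min detection at 25° C in the dark; values normalized to neutral and stimulator controls and plate-pattern corrected.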
In turn, `Cc1ccc(CN2CCN(C(=O)/C=C/c3ccccc3)CC2)cc1` [Compound C260] yielded an IC50 below 100 nM.
In turn, `O=C(c1cc2cc(Cl)ccc2[nH]1)N1CCC(Nc2cc(F)cc(F)c2)CC1` [Compound C273, 4-[(3,5-difluorophenyl)amino]piperidyl 5-chloroindol-2-yl ketone] displayed an IC50 below 100 nM.

The test is the same for the next values; noted with them: cell-based luminescence; 7a,25-OHC final assay concentration 80 nM; 60 minutes incubation; read-out: IC50.
Take `CCCc1ccc(S(=O)(=O)N2CCN(C(=O)/C=C/c3ccc(F)cc3)CC2)cc1` [Compound C259, (2E)-3-(4-fluorophenyl)-1-{4-[(4-propylphenyl)sulfonyl]piperazinyl}prop-2-en-1-one]: the IC50 was below 100 nM.
Still for that read-out and setting: in the case of `CC(C)c1ccc(S(=O)(=O)N2CCN(C(=O)/C=C/c3ccc(F)cc3)CC2)cc1` [Compound C261, (2E)-3-(4-fluorophenyl)-1-(4-{[4-(methylethyl)phenyl]sulfonyl}piperazinyl)prop-2-en-1-one] it was below 100 nM; in that of `O=C(C#Cc1cccc(Cl)c1Cl)N1CCN(Cc2ccc(F)cc2)CC1` [Compound C262, 3-(2,3-dichlorophenyl)-1-{4-[(4-fluorophenyl)methyl]piperazinyl}prop-2-yn-1-one], below 100 nM; in that of `O=C(c1cc2c(F)cc(F)cc2[nH]1)N1CCN(C(c2ccccc2)c2ccccc2)CC1` [Compound C263, 4,6-difluoroindol-2-yl 4-(diphenylmethyl)piperazinyl ketone], below 100 nM.
Still for that read-out and setting: in the case of `O=C(c1ccc(Br)cc1)N1CCN(C(=O)c2cc3ccc(Br)cc3[nH]2)CC1` [Compound C264, 6-bromoindol-2-yl 4-[(4-bromophenyl)carbonyl]piperazinyl ketone] it was below 100 nM; in that of `O=C(/C=C/c1cccc(C(F)(F)F)c1)N1CCN(C(c2ccccc2)c2ccccc2)CC1` [Compound C265, (2E)-1-[4-(diphenylmethyl)piperazinyl]-3-[3-(trifluoromethyl)phenyl]prop-2-en-1-one], below 100 nM.
Same read-out and setting: the value for `O=C(C#Cc1ccc2c(c1)OCO2)N1CCN(C(=O)c2ccc(C(F)(F)F)cc2)CC1` [Compound C266, 3-(2H-benzo[3,4-d]1,3-dioxolen-5-yl)-1-(4-{[4-(trifluoromethyl)phenyl]carbonyl}piperazinyl)prop-2-yn-1-one] was below 100 nM; that for `O=C(/C=C/c1ccc(Br)cc1)N1CCN(C(=O)c2cccc(B(O)O)c2)CC1` [Compound C267, (E)-(3-(4-(3-(4-bromophenyl)acryloyl)piperazine-1-carbonyl)phenyl)boronic acid] was below 100 nM.
On to `O=C(c1ccc(F)cc1)N1CCN(C(=O)c2cc3ccc(Cl)cc3[nH]2)CC1` [Compound C268, 6-chloroindol-2-yl 4-[(4-fluorophenyl)carbonyl]piperazinyl ketone], for which the IC50 is below 100 nM.
On the same count and under the same terms, in the case of `O=C(/C=C/c1ccc(Br)cc1)N1CCN(Cc2ccccc2F)CC1` [Compound C269, (2E)-3-(4-bromophenyl)-1-{4-[(2-fluorophenyl)methyl]piperazinyl}prop-2-en-1-one] it was below 100 nM.
Regarding `O=C(/C=C/c1ccccc1)N1CCN(CCc2ccc(Cl)cc2)CC1` [Compound C270, (2E)-1-{4-[2-(4-chlorophenyl)ethyl]piperazinyl}-3-phenylprop-2-en-1-one], the IC50 is below 100 nM.
Still for that read-out and setting: in the case of `O=C(c1cccc(C(F)(F)F)c1)N1CCN(C(=O)c2cc3cc(C(F)(F)F)ccc3[nH]2)CC1` [Compound C271, 5-(trifluoromethyl)indol-2-yl 4-{[3-(trifluoromethyl)phenyl]carbonyl}piperazinyl ketone] it was below 100 nM.
Turning to `O=C(c1cc2cc(Cl)ccc2[nH]1)N1CCC(Oc2cccc(Cl)c2)CC1` [Compound C272, 5-chloroindol-2-yl 4-(3-chlorophenoxy)piperidyl ketone], the IC50 was below 100 nM.
On the same count and under the same terms, the value for `COc1ccc(CN2CCN(C(=O)C#Cc3ccc(Br)cc3)CC2)cc1` [Compound C274, 3-(4-bromophenyl)-1-{4-[(4-methoxyphenyl)methyl]piperazinyl}prop-2-yn-1-one] was below 100 nM; that for `O=C(c1cnc2ccccc2n1)N1CCN(C(c2ccccc2)c2ccccc2)CC1` [Compound C276, 4-(diphenylmethyl)piperazinyl quinoxalin-2-yl ketone] was 100 to 500 nM; that for `O=C(/C=C/c1ccccc1C(F)(F)F)N1CCN(S(=O)(=O)c2ccc(Br)cc2)CC1` [Compound C277, (2E)-1-{4-[(4-bromophenyl)sulfonyl]piperazinyl}-3-[2-(trifluoromethyl)phenyl]prop-2-en-1-one] was 100 to 500 nM.
On the same count and under the same terms, in the case of `O=C(c1cc2ccccn2n1)N1CCN(C(=O)c2cc3cc(Cl)ccc3[nH]2)CC1` [Compound C278, 5-chloroindol-2-yl 4-(8-hydropyrazolo[1,5-a]pyridin-2-ylcarbonyl)piperazinyl ketone] it was 100 to 500 nM; in that of `O=C(c1cn2ccccc2n1)N1CCN(C(=O)c2cc3cc(Cl)ccc3[nH]2)CC1` [Compound C279, 5-chloroindol-2-yl 4-(4-hydroimidazo[1,2-a]pyridin-2-ylcarbonyl)piperazinyl ketone], 100 to 500 nM; in that of `COc1cc2cc(C(=O)N3CCN(C(c4ccccc4)c4ccccc4)CC3)[nH]c2cc1OC` [Compound C280, 5,6-dimethoxyindol-2-yl 4-(diphenylmethyl)piperazinyl ketone], 100 to 500 nM.
For the compound `O=C(C#Cc1cccc(Cl)c1Cl)N1CCN(Cc2ccc(C(F)(F)F)cc2)CC1` [Compound C281, 3-(2,3-dichlorophenyl)-1-(4-{[4-(trifluoromethyl)phenyl]methyl}piperazinyl)prop-2-yn-1-one], the IC50 lay within 100 to 500 nM.
`NC(=O)c1ccc(C(=O)N2CCN(C(=O)c3cc4cc(Cl)ccc4[nH]3)CC2)cc1` [Compound C282, 4-({4-[(5-chloroindol-2-yl)carbonyl]piperazinyl}carbonyl)benzamide]: the IC50 was 100 to 500 nM.
Take `O=C(c1ccc2nc(C(F)F)[nH]c2c1)N1CCN(C(c2ccccc2)c2ccccc2)CC1` [Compound C283, 2-(difluoromethyl)benzimidazol-5-yl 4-(diphenylmethyl)piperazinyl ketone]: the IC50 is 100 to 500 nM.
Regarding `O=C(C#Cc1ccc(Cl)c(Cl)c1)N1CCN(Cc2ccc(F)cc2)CC1` [Compound C284, 3-(3,4-dichlorophenyl)-1-{4-[(4-fluorophenyl)methyl]piperazinyl}prop-2-yn-1-one], the IC50 was in the range of 100 to 500 nM.
For the compound `O=C(c1cc2cc(Cl)ccc2[nH]1)N1CCN(C(=O)c2cccnc2Cl)CC1` [Compound C285, 4-[(2-chloro(3-pyridyl))carbonyl]piperazinyl 5-chloroindol-2-yl ketone], the IC50 is 100 to 500 nM.
On the same count and under the same terms, the value for `Cn1c(C(=O)N2CCN(C(=O)OC(C)(C)C)CC2)cc2ccccc21` [Compound C286, tert-butyl 4-[(1-methylindol-2-yl)carbonyl]piperazinecarboxylate] was 100 to 500 nM; that for `O=C(C#Cc1ccc(F)cc1)N1CCN(C(=O)c2ccc(F)cc2C(F)(F)F)CC1` [Compound C287, 3-(4-fluorophenyl)-1-(4-{[4-fluoro-2-(trifluoromethyl)phenyl]carbonyl}piperazinyl)prop-2-yn-1-one] was 100 to 500 nM.
On to `O=C(c1cc2cc(Cl)ccc2[nH]1)N1CCN(C(=O)c2nc3ccccc3[nH]2)CC1` [Compound C288, 4-(benzimidazol-2-ylcarbonyl)piperazinyl 5-chloroindol-2-yl ketone], for which the IC50 was in the range of 100 to 500 nM.
On the same count and under the same terms, the value for `O=C(c1cc2cc(Cl)ccc2[nH]1)N1CCC(Oc2ccccn2)CC1` [Compound C289, 5-chloroindol-2-yl 4-(2-pyridyloxy)piperidyl ketone] was 100 to 500 nM.
Consider `O=C(c1csc2ccccc12)N1CCN(C(c2ccccc2)c2ccccc2)CC1` [Compound C290, benzo[b]thiophen-3-yl 4-(diphenylmethyl)piperazinyl ketone], for which the IC50 lay within 100 to 500 nM.
Regarding `O=C(c1ccc(C(F)(F)F)cc1)N1CCN(C(=O)c2cc3ccc(F)cc3[nH]2)CC1` [Compound C292, 6-fluoroindol-2-yl 4-{[4-(trifluoromethyl)phenyl]carbonyl}piperazinyl ketone], the IC50 is 100 to 500 nM.
The same measure, in the same setting: the value for `O=C(c1cc2ccc(Br)cc2[nH]1)N1CCN(Cc2ccc(F)cc2)CC1` [Compound C293, 6-bromoindol-2-yl 4-[(4-fluorophenyl)methyl]piperazinyl ketone] was 100 to 500 nM; that for `O=C(C#Cc1cc(F)cc(F)c1)N1CCN(Cc2ccc(Cl)cc2)CC1` [Compound C294, 3-(3,5-difluorophenyl)-1-{4-[(4-chlorophenyl)methyl]piperazinyl}prop-2-yn-1-one] was 100 to 500 nM; that for `CCN1CCN(C(=O)c2cc3cc(Cl)ccc3[nH]2)CC1` [Compound C295, 5-chloroindol-2-yl 4-ethylpiperazinyl ketone] was 100 to 500 nM.
The same measure, in the same setting: the value for `O=C(c1ccc2nc[nH]c2c1)N1CCN(C(c2ccccc2)c2ccccc2)CC1` [Compound C296, benzimidazol-5-yl 4-(diphenylmethyl)piperazinyl ketone] was 100 to 500 nM; that for `O=C(C=Cc1ccc2c(c1)OCO2)N1CCN(Cc2ccc(Cl)cc2)CC1` [Compound C297, 3-(2H-benzo[3,4-d]1,3-dioxolan-5-yl)-1-{4-[(4-chlorophenyl)methyl]piperazinyl}prop-2-en-1-one] was 100 to 500 nM; that for `O=C(C=Cc1ccc2c(c1)OCO2)N1CCN(Cc2ccc(Br)cc2)CC1` [Compound C298, 3-(2H-benzo[3,4-d]1,3-dioxolan-5-yl)-1-{4-[(4-bromophenyl)methyl]piperazinyl}prop-2-en-1-one] was 100 to 500 nM.
As for `O=C(c1ccc2nc(C(F)(F)F)[nH]c2c1)N1CCN(C(c2ccccc2)c2ccccc2)CC1` [Compound C299, 4-(diphenylmethyl)piperazinyl 2-(trifluoromethyl)benzimidazol-5-yl ketone], the IC50 was in the range of 100 to 500 nM.
Take `O=C(/C=C/c1ccc(Cl)cc1F)N1CCN(C(=O)c2cc3cc(Cl)ccc3[nH]2)CC1` [Compound C300, (2E)-3-(4-chloro-2-fluorophenyl)-1-{4-[(5-chloroindol-2-yl)carbonyl]piperazinyl}prop-2-en-1-one]: the IC50 was below 100 nM.

Source of the values: patent US9776979B2, “EBI2 modulators” (Sanford-Burnham Medical Research Institute, priority 2013, dated 2017).
